Experimental data from PMC9297976 (Journal of Applied Toxicology, 2021).

Legend:
medaka Esr1 (mEsr1) [1] = molecular target: T1, medaka Esr1 (mEsr1) (Oryzias latipes, UniProt P50241); test: cell-based; set-up: species or system Japanese medaka (Oryzias latipes)
T1 sequence (P50241 1-620): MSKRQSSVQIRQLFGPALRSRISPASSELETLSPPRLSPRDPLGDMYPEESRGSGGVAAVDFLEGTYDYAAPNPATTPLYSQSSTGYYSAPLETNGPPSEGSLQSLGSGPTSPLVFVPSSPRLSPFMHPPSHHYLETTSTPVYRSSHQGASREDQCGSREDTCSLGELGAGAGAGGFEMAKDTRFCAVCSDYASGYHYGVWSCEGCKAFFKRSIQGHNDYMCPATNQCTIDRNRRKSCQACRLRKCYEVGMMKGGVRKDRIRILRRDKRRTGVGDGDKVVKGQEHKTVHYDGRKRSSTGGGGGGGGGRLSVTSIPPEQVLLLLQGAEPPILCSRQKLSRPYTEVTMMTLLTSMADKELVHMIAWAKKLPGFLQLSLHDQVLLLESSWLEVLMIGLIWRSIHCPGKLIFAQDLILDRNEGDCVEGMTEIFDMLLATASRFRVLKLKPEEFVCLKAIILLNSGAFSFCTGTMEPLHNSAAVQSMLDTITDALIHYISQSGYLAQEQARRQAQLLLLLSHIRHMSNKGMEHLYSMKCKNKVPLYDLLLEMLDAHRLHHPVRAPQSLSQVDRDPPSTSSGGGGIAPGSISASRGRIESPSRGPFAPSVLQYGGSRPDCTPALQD

medaka ARβ (mArβ) [2] = molecular target: T2, medaka ARβ (mArβ) (Oryzias latipes, UniProt D1MV73); test: Medaka ARβ reporter gene assay, antagonist assay; type: cell-based, Japanese medaka (Oryzias latipes)
T2 sequence (D1MV73 1-744): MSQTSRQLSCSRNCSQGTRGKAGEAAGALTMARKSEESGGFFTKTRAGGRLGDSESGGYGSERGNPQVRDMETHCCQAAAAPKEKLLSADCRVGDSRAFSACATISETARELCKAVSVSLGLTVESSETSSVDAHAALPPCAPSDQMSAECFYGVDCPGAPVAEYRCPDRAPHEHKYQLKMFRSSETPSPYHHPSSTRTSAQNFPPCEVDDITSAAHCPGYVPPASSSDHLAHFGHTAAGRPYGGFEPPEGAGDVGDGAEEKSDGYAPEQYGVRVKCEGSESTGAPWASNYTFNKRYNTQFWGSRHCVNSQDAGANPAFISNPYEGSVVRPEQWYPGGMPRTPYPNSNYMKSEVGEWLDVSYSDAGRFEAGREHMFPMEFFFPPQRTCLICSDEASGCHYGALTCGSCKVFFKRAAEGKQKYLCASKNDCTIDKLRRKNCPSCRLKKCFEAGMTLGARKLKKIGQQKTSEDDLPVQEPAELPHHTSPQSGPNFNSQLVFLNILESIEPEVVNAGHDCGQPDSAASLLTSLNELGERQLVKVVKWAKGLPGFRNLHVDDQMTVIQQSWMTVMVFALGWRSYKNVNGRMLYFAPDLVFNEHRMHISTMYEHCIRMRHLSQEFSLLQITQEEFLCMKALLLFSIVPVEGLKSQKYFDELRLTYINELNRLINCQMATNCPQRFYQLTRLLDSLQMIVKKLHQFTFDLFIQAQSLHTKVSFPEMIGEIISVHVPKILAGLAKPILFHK

medaka ARβ (mArβ) [3] = molecular target: T2, medaka ARβ (mArβ); test: Medaka ARβ reporter gene assay, agonist assay; type: cell-based, Japanese medaka (Oryzias latipes); details: MAC = 1.0 × 10^−5 M
[4] = test system: Japanese medaka (Oryzias latipes); test: Fish Short‐Term Reproduction Assay; type: in vivo; details: for GSI Female / GSI Male / HSI Female / HSI Male / Length Female / Length Male / Weight Female / Weight Male: completion of exposure
medaka Esr1 (mEsr1) [5] = molecular target: T1, medaka Esr1 (mEsr1); test: Medaka Esr1 reporter gene assay, antagonist assay; type: cell-based, Japanese medaka (Oryzias latipes); details: E2 spiked at 1.0 nM (B); MAC = 1.0 × 10^−5 M
[6] = 1,009 ng/L measured, 21 d, sig. ↑ vs control
[7] = measured concentration 112 ng/L
[8] = measured concentration 272 ng/L
[9] = measured concentration 1,009 ng/L

Structure (SMILES): C[C@]12CC[C@@H]3c4ccc(O)cc4CC[C@H]3[C@@H]1CCC2=O [Chemical E1, Estrone]
- EC50 (medaka Esr1 (mEsr1) [1]): 0.0054 µM
- In vitro positive: Esr (medaka Esr1 (mEsr1) [1]; mode of action in which EC50 or PC10 was obtained in RGA): Esr
- IC50 (medaka ARβ (mArβ) [2]; Antagonistic activity IC50, 11‐KT spiked at 50 nM (D)): 1.5 µM
- In vitro positive: aAr (medaka ARβ (mArβ) [2]; mode of action in which IC50 or IC30 was obtained in RGA): aAr
- Antagonistic activity on mArβ (in words) (medaka ARβ (mArβ) [2]; transcriptional activity on mArβ by 11KT): inhibitory potency
- Agonistic activity (medaka ARβ (mArβ) [3]): NE (MAC = 1.0 × 10^−5 M)
- Fertility rate ([4]; 29 ng/L measured, 21 d): 92 ± 9.8%
- Hepatic VTG, female ([4]; 29 ng/L measured, 21 d): 652 ± 391 ng/mg‐liver
- Hepatic VTG, male ([4]; 29 ng/L measured, 21 d): 47.9 ± 54.0 ng/mg‐liver
- Mortality ([4]; 29 ng/L measured, 21 d): 0.0%
- Mortality, number of dead fish ([4]; 29 ng/L measured, 21 d): 0
- Number of fertilized eggs (per female per day) ([4]; 29 ng/L measured, 21 d): 17 ± 4.4
- Number of total eggs (per female per day) ([4]; 29 ng/L measured, 21 d): 18 ± 3.2
- SSC female (joint plates with papillary processes) ([4]; 29 ng/L measured, 21 d): 0 ± 0
- SSC male (joint plates with papillary processes) ([4]; 29 ng/L measured, 21 d): 97 ± 14
- Fertility rate ([4]; 112 ng/L measured, 21 d): 96 ± 1.3%
- Hepatic VTG, female ([4]; 112 ng/L measured, 21 d): 977 ± 274 ng/mg‐liver
- Hepatic VTG, male ([4]; 112 ng/L measured, 21 d): 382 ± 351 ng/mg‐liver
- Mortality ([4]; 112 ng/L measured, 21 d): 0.0%
- Mortality, number of dead fish ([4]; 112 ng/L measured, 21 d): 0
- Number of fertilized eggs (per female per day) ([4]; 112 ng/L measured, 21 d): 19 ± 2.4
- Number of total eggs (per female per day) ([4]; 112 ng/L measured, 21 d): 19 ± 2.6
- SSC female (joint plates with papillary processes) ([4]; 112 ng/L measured, 21 d): 0 ± 0
- SSC male (joint plates with papillary processes) ([4]; 112 ng/L measured, 21 d): 98 ± 25
- Fertility rate ([4]; 272 ng/L measured, 21 d): 96 ± 2.8%
- Hepatic VTG, female ([4]; 272 ng/L measured, 21 d): 1,017 ± 238 ng/mg‐liver
- Mortality ([4]; 272 ng/L measured, 21 d): 0.0%
- Mortality, number of dead fish ([4]; 272 ng/L measured, 21 d): 0
- Number of fertilized eggs (per female per day) ([4]; 272 ng/L measured, 21 d): 16 ± 2.5
- Number of total eggs (per female per day) ([4]; 272 ng/L measured, 21 d): 17 ± 2.5
- SSC female (joint plates with papillary processes) ([4]; 272 ng/L measured, 21 d): 0 ± 0
- SSC male (joint plates with papillary processes) ([4]; 272 ng/L measured, 21 d): 85 ± 14
- Hepatic VTG, male ([4]; 272 ng/L measured, 21 d, sig. ↑ vs control): 3,649 ± 665 ng/mg‐liver
- Fertility rate ([4]; 1,009 ng/L measured, 21 d): 86 ± 3.6%
- Mortality ([4]; 1,009 ng/L measured, 21 d): 0.0%
- Mortality, number of dead fish ([4]; 1,009 ng/L measured, 21 d): 0
- SSC female (joint plates with papillary processes) ([4]; 1,009 ng/L measured, 21 d): 0 ± 0
- SSC male (joint plates with papillary processes) ([4]; 1,009 ng/L measured, 21 d): 85 ± 18
- Hepatic VTG, female [4, 6]: 1994 ± 1,480 ng/mg‐liver
- Hepatic VTG, male [4, 6]: 5,429 ± 687 ng/mg‐liver
- Number of total eggs (per female per day) ([4]; 1,009 ng/L measured, 21 d, sig. ↓ vs control): 10 ± 2.0
- Fecundity, number of total eggs (in words) ([4]; 21 d): statistically significant decrease
- LOEC, elevated hepatic VTG in males ([4]; 21 d): 272 ng/L
- LOECREPRO ([4]; LOEC on reproduction (fecundity and/or fertility)): 1.009 µg/L
- minimal effective concentration ([4]; Oryzias latipes, 504 h, read-out: LOECmVTG): 0.000272 µg/mL
- Fertility rate (in words) ([4]; chemicals with significant decrease of number of total eggs): no significant effect
- LOECREPRO (reduction in fecundity or fertility) ([4]; concentrations without overt toxicity): 1.009 µg/L
- LOECTOX ([4]; lowest observed effect concentration on mortality): ND (>1.009) μg/L
- GSI Female ([4]; measured concentration 29 ng/L): 10.7 ± 1.4%
- GSI Male ([4]; measured concentration 29 ng/L): 1.15 ± 0.31%
- HSI Female ([4]; measured concentration 29 ng/L): 5.4 ± 0.61%
- HSI Male ([4]; measured concentration 29 ng/L): 2.0 ± 0.28%
- Length Female ([4]; measured concentration 29 ng/L): 33.8 ± 1.0 mm
- Length Male ([4]; measured concentration 29 ng/L): 35.8 ± 1.7 mm
- Weight Female ([4]; measured concentration 29 ng/L): 454 ± 56 mg
- Weight Male ([4]; measured concentration 29 ng/L): 468 ± 85 mg
- GSI Female [4, 7]: 11.2 ± 1.8%
- GSI Male [4, 7]: 1.17 ± 0.27%
- HSI Female [4, 7]: 5.5 ± 0.77%
- HSI Male [4, 7]: 2.1 ± 0.54%
- Length Female [4, 7]: 34.3 ± 1.6 mm
- Length Male [4, 7]: 36.5 ± 1.2 mm
- Weight Female [4, 7]: 460 ± 86 mg
- Weight Male [4, 7]: 481 ± 44 mg
- GSI Female [4, 8]: 11.3 ± 1.0%
- GSI Male [4, 8]: 0.84 ± 0.32%
- HSI Female [4, 8]: 6.0 ± 0.76%
- HSI Male [4, 8]: 2.7 ± 0.38%
- Length Female [4, 8]: 34.0 ± 1.0 mm
- Length Male [4, 8]: 36.5 ± 1.3 mm
- Weight Female [4, 8]: 417 ± 41 mg
- Weight Male [4, 8]: 464 ± 62 mg
- GSI Female [4, 9]: 11.4 ± 7.1%
- GSI Male [4, 9]: 0.48 ± 0.23%
- HSI Female [4, 9]: 5.1 ± 1.24%
- HSI Male [4, 9]: 3.5 ± 0.50%
- Length Female [4, 9]: 34.2 ± 2.1 mm
- Length Male [4, 9]: 35.9 ± 1.4 mm
- Weight Female [4, 9]: 443 ± 97 mg
- Weight Male [4, 9]: 468 ± 54 mg
- Antagonistic activity (medaka Esr1 (mEsr1) [5]): NE (MAC = 1.0 × 10^−5 M)^(B)
